Measured values published in patent US20060134063A1, “Agents for proliferating pancreatic beta-cells of the islets of langerhans, agents for suppressing apoptosis of said cells, and screening of candidate compounds for these agents” (priority 2000, published 2006).

How the values were obtained:
Reg gene = assay: RT-PCR of Reg gene expression in RINm5F cells; assay type: cell-based, rat; settings: 24 h with stimulants
Method: The Reg gene expression was analyzed by RT-PCR. The cells were harvested after 24 h of culturing in a medium supplemented with stimulants, and total RNA was prepared using cesium trifluoroacetate as described in Takasawa, S. et al. (1993) J. Biol. Chem., 268, 26052-26054. RT-PCR was performed using primers corresponding to nucleotides 23 to 43 and 572 to 593 of rat Reg mRNA (Terazono, K. et al. (1988) J. Biol. Chem., 263, 2111-2114).

Reg protein = assay: Immunoblot of secreted Reg protein in RINm5F culture medium; assay type: cell-based, rat; settings: 24 h incubation with stimulants
Method: The Reg protein levels in the RINm5F cultured media were examined after stimulation. After 24-hour incubation of the cells in a medium supplemented with stimulants, the medium was collected, and subjected to immunoblot analyses as described in Watanabe, T. et al. (1990) J. Biol. Chem., 265, 7432-7439. The medium of RINm5F cells was subjected to SDS polyacrylamide gel electrophoresis (SDS-PAGE) and electrotransferred to a PVDF membrane as described in Takasawa, S. et al. (1993) J. Biol. Chem., 268, 26052-26054. Western blotting was carried out using an anti-rat Reg monoclonal antibody (Terazono, K. et al. (1990) Diabetologia, 33, 250-252).

[1] = tested on: 5'-flanking region of the rat Reg gene; assay: Reg promoter/luciferase reporter assay in RINm5F cells; assay type: cell-based; settings: 2,303-bp Reg 5'-flanking fragment; 24 h stimulation
Method: A 2,303-bp fragment containing the 5′-flanking region of Reg gene was fused to the luciferase gene and transfected into RINm5F β-cells.
Specifically, luciferase reporter gene constructs were generated as described in Miyashita, H. et al. (1994) Biochim. Biophys. Acta, 1219, 241-243. RINm5F cells were seeded at 1×10^5 cells/well in 24-well dish. After 48 h, 3.0 μg of test plasmid and 0.2 μg of pCMV-SPORT β-gal (Life Technologies, Inc.) were transfected by lipofection (Felgner, J. H. et al. (1994) J. Biol. Chem., 269, 2550-2561) using DMRIE-C™ (Life Technologies, Inc.). After 24 h, the medium of each dish was replaced with fresh medium containing stimulants and incubated further for 24 h. Cells were harvested in 1 ml of ice-cold phosphate-buffered saline (PBS), washed twice with PBS, and extracts were prepared in extraction buffer (0.1 M potassium phosphate, pH 6.8, 1 mM DTT). The protein concentration was determined using a Coomassie reagent kit (Pierce) and bovine serum albumin as a standard. Luciferase activity was determined by a chemiluminescence substrate using a Pica Gene™ Luminescence Kit (Toyo Ink Mfg. Co, Ltd., Tokyo, Japan). β-galactosidase activity was determined using Aurora™ GAL-XE (ICN).

[2] = target: T1, poly(ADP-ribose) synthetase/polymerase (PARP) (Rattus norvegicus, UniProt P27008); assay: GMSA binding reaction of RINm5F nuclear extracts, effects of ADP-ribosylation; assay type: biochemical; settings: for intensity of the IL-6/dexamethasone/nicotinamide-dependent GMSA band: added to the binding reaction prior to the 32P-probe
T1 construct: Nuclear extracts from RINm5F cells were prepared as described; endogenous in cells; host or cells: RINm5F (rat insulinoma) nuclear extract
T1 sequence (P27008 whole entry): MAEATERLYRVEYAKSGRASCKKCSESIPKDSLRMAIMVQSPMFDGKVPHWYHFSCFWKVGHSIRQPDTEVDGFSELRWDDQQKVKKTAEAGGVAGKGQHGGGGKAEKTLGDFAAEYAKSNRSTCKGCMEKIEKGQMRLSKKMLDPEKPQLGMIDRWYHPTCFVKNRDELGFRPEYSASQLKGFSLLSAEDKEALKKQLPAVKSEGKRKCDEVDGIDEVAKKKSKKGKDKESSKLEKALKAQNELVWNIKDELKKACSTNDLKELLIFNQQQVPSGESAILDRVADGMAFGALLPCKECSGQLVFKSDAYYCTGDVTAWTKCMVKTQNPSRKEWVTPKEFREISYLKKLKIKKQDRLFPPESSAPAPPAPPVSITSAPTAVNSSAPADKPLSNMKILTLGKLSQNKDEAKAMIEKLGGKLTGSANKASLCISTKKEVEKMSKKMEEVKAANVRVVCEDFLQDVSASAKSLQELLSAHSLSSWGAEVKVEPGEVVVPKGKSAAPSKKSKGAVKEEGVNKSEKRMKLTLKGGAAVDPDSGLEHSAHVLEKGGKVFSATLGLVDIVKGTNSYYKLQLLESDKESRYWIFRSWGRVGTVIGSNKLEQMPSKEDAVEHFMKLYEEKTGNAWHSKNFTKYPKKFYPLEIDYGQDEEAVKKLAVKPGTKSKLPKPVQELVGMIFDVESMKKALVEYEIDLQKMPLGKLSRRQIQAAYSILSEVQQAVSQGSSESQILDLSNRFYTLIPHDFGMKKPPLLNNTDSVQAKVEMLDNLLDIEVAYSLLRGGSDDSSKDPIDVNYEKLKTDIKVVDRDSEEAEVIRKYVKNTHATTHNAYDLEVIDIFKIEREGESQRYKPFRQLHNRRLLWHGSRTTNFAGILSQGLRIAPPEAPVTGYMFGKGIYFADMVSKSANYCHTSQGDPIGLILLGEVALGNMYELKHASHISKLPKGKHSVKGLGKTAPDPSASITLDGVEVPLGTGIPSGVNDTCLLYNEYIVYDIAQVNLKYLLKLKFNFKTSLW
Method: The nuclear extract (10 μg) was incubated in a final volume of 20 μl of buffer containing 20 mM Tris-HCl (pH 7.9), 2 mM MgCl2, 50 mM NaCl, 2 mM EDTA, 10% glycerol, 0.1% Nonidet P-40, 1 mM DTT, 50 μg/ml bovine serum albumin and 1 μg of poly(dI-dC). After incubation for 10 min at room temperature, 2.5 pmol of double-stranded DNA, previously labeled by an exchange reaction using MEGALABEL (Takara Shuzo) and [γ-^32P]ATP (Amersham Pharmacia Biotech), were added and incubated for 30 min at room temperature, then the binding reactions were resolved on pre-run 6% acrylamide gel. […] After electrophoresis, DNA/proteins were electrophoretically transferred to a PolyScreen™ PVDF membrane (NEN).
Poly(ADP-ribosyl)ation of nuclear proteins was performed in the same condition as GMSA in the presence of 62 nM [adenylate-^32P]NAD^+ (2×10^6 cpm, NEN). The ADP-ribosylated proteins were precipitated by the addition of 9 volume of acetone, separated by SDS-PAGE (12.5%) and autoradiographed.

90% depancreatized rats = settings: cited from earlier work
[3] = tested on: RINm5F cell lines, #1, #6, and #24, which stably express the Reg protein receptor; assay: TUNEL apoptosis assay in RINm5F cell lines #1, #6, #24 expressing Reg protein receptor; assay type: cell-based, rat; settings: HGF 0, 2.5, 25 ng/ml; 24 h; every cell line
Method: Rat insulinoma RINm5F cell lines, #1, #6, and #24, which stably express Reg protein receptor (Kobayashi, S. et al. (2000) J. Biol. Chem. 275, 10723-10726) were similarly cultured as in Example 4 and 1,000 nM Reg protein and HGF at varied concentrations, 0, 2.5, and 25 ng/ml were added thereto. Twenty-four hours after the addition of Reg protein/HGF, apoptosis was measured by TUNEL method using an Apoptosis Screening kit (Wako Pure Chemical Industries Ltd., Osaka, Japan) as described in Kobayashi, S. et al. (2000) J. Biol. Chem. 275, 10723-10726.

[4] = tested on: RINm5F cell lines, #1, #6, and #24, which stably express the Reg protein receptor; settings: 1,000 nM Reg protein added to culture media; cited from earlier work
[5] = tested on: non-obese diabetic (NOD) mice; settings: cited from earlier work

## IL-1β: IL-1β (Sigma), stimulant
Reg gene
  Reg gene expression (Reg mRNA): no effect on Reg expression

## IL-6: interleukin (IL)-6, a cytokine whose receptor is gp130 (Genzyme)
Reg protein
  Reg protein secretion into the medium: did not induce Reg protein secretion
[1]
  luciferase activity (result in words): ineffective
Reg gene
  Reg gene expression (Reg mRNA): no effect on Reg expression

## NC(=O)c1cccc(N)c1 [3-aminobenzamide]
[2]; 1 mM β-NAD+ in the GMSA binding reaction, read-out: concentrations of half maximal inhibition (quenching of the effect of β-NAD+ on the GMSA band)
  IC50: 30 µM
[1]
  luciferase activity (result in words): ineffective
90% depancreatized rats; PARP inhibitor-treated rats
  development of diabetes after 90% pancreatectomy: preventing the development of diabetes
Reg gene
  Reg gene expression (Reg mRNA): no effect on Reg expression

## NC(=O)c1ccc[n+]([C@H]2O[C@H](COP(=O)(O)OP(=O)(O)OC[C@H]3O[C@@H](n4cnc5c(N)ncnc54)[C@H](O)[C@@H]3O)[C@@H](O)[C@H]2O)c1 [α-NAD^+]
[2]
  intensity of the IL-6/dexamethasone/nicotinamide-dependent GMSA band: not

## Nc1ncnc2c1ncn2[C@@H]1O[C@H](COP(=O)(O)OP(=O)(O)OC[C@H]2OC(O)[C@H](O)[C@@H]2O)[C@@H](O)[C@H]1O (some centres unmarked) [ADP-ribose]
[2]
  intensity of the IL-6/dexamethasone/nicotinamide-dependent GMSA band: did not attenuate the band intensity

## NC(=O)c1ccc[n+]([C@@H]2O[C@H](COP(=O)([O-])OP(=O)(O)OC[C@H]3O[C@@H](n4cnc5c(N)ncnc54)[C@H](O)[C@@H]3O)[C@@H](O)[C@H]2O)c1 [β-NAD^+]
[2]
  intensity of the IL-6/dexamethasone/nicotinamide-dependent GMSA band: attenuated

## N=c1c2ncn3c2ncn1[C@@H]1O[C@H](COP(=O)(O)OP(=O)(O)OC[C@H]2O[C@@H]3[C@H](O)[C@@H]2O)[C@@H](O)[C@H]1O [cyclic ADP-ribose]
[2]
  intensity of the IL-6/dexamethasone/nicotinamide-dependent GMSA band: did not attenuate the band intensity

## HGF: hepatocyte growth factor (HGF; Sigma)
[3]
  apoptosis induced by 1,000 nM Reg protein (TUNEL): concentration-dependently inhibited apoptosis

## TNFα
Reg gene
  Reg gene expression (Reg mRNA): no effect on Reg expression

B1: Reg protein: product of Reg (regenerating gene), stimulates β-cell proliferation (protein)
chain: QEAEEDLPSARITCPEGSNAYSSYCYYFMEDHLSWAEADLFCQNMNSGYLVSVLSQAEGNFLASLIKESGTTAANVWIGLHDPKNNRRWHWSSGSLFLYKSWDTGYPNNSNRGYCVSVTSNSGYKKWRDNSCDAQLSFVCKFKA
[4]
  proliferation and apoptosis of the cells: induced not only proliferation but also apoptosis

B2: Human REG protein: human REG protein, 166-amino acid protein with 68% identity to rat Reg protein (protein, UniProt P05451 1-166, looked up)
chain: MAQTSSYFMLISCLMFLSQSQGQEAQTELPQARISCPEGTNAYRSYCYYFNEDRETWVDADLYCQNMNSGNLVSVLTQAEGAFVASLIKESGTDDFNVWIGLHDPKKNRRWHWSSGSLVSYKSWGIGAPSSVNPGYCVSLTSSTGFQKWKDVPCEDKFSFVCKFKN
modifications: full-length
notes: human REG protein, 166-amino acid protein with 68% identity to rat Reg protein
[5]
  β-cell mass: induced an expansion of the β-cell mass

B3: Recombinant rat Reg protein: recombinant rat Reg protein, 165-amino acid protein with a 21-amino acid signal peptide (protein, UniProt P10758 1-165, looked up)
chain: MTRNKYFILLSCLMVLSPSQGQEAEEDLPSARITCPEGSNAYSSYCYYFMEDHLSWAEADLFCQNMNSGYLVSVLSQAEGNFLASLIKESGTTAANVWIGLHDPKNNRRWHWSSGSLFLYKSWDTGYPNNSNRGYCVSVTSNSGYKKWRDNSCDAQLSFVCKFKA
modifications: full-length
notes: recombinant rat Reg protein, 165-amino acid protein with a 21-amino acid signal peptide
90% depancreatized rats; 90% depancreatized rats
  β-cell replication and β-cell mass in the residual pancreas: stimulated β-cell replication and increased the β-cell mass
